Assay results: ChEMBL document CHEMBL4311999, “3-Hydrazinoisatin-based benzenesulfonamides as novel carbonic anhydrase inhibitors endowed with anticancer activity: Synthesis, in vitro biological evaluation and in silico insights” (Eur J Med Chem, 2019)

What was measured:
[1] = test system: HOP-92; assay: Growth inhibition of human HOP92 cells at 10 uM incubated for 48 hrs by sulforhodamine B assay relative to control; format: functional; conditions: HOP-92, 48 h, read-out: GI
[2] = test system: SK-MEL-2; assay: Growth inhibition of human SK-MEL-2 cells at 10 uM incubated for 48 hrs by sulforhodamine B assay relative to control; format: functional; conditions: SK-MEL-2, 48 h, read-out: GI
[3] = test system: OVCAR-4; assay: Growth inhibition of human OVCAR4 cells at 10 uM incubated for 48 hrs by sulforhodamine B assay relative to control; format: functional; conditions: OVCAR-4, 48 h, read-out: GI
[4] = test system: NCI-H460; assay: Growth inhibition of human NCI-H460 cells at 10 uM incubated for 48 hrs by sulforhodamine B assay relative to control; format: functional; conditions: NCI-H460, 48 h, read-out: GI
[5] = test system: UACC-62; assay: Growth inhibition of human UACC62 cells at 10 uM incubated for 48 hrs by sulforhodamine B assay relative to control; format: functional; conditions: UACC-62, 48 h, read-out: GI
[6] = test system: 786-0; assay: Growth inhibition of human 786-0 cells at 10 uM incubated for 48 hrs by sulforhodamine B assay relative to control; format: functional; conditions: 786-0, 48 h, read-out: GI
[7] = test system: CCRF-CEM; assay: Growth inhibition of human CCRF-CEM cells at 10 uM incubated for 48 hrs by sulforhodamine B assay relative to control; format: functional; conditions: read-out: GI
[8] = test system: BT-549; assay: Growth inhibition of human BT549 cells at 10 uM incubated for 48 hrs by sulforhodamine B assay relative to control; format: functional; conditions: BT-549, 48 h, read-out: GI
[9] = molecular target: T1, Carbonic anhydrase 9 (Homo sapiens, UniProt Q16790); assay: Inhibition of recombinant human carbonic anhydrase 9 preincubated for 15 mins by phenol red dye based stopped flow CO2 hydration assay
[10] = test system: RPMI-8226; assay: Growth inhibition of human RPMI8226 cells at 10 uM incubated for 48 hrs by sulforhodamine B assay relative to control; format: functional; conditions: RPMI-8226, 48 h, read-out: GI
[11] = test system: MDA-MB-231; assay: Growth inhibition of human MDA-MB-231 cells at 10 uM incubated for 48 hrs by sulforhodamine B assay relative to control; format: functional; conditions: MDA-MB-231, 48 h, read-out: GI
[12] = test system: OVCAR-8; assay: Growth inhibition of human OVCAR8 cells at 10 uM incubated for 48 hrs by sulforhodamine B assay relative to control; format: functional; conditions: OVCAR-8, 48 h, read-out: GI
[13] = test system: SK-MEL-5; assay: Growth inhibition of human SK-MEL-5 cells at 10 uM incubated for 48 hrs by sulforhodamine B assay relative to control; format: functional; conditions: SK-MEL-5, 48 h, read-out: GI
[14] = test system: A498; assay: Growth inhibition of human A498 cells at 10 uM incubated for 48 hrs by sulforhodamine B assay relative to control; format: functional; conditions: A498, 48 h, read-out: GI
[15] = test system: TK-10; assay: Growth inhibition of human TK10 cells at 10 uM incubated for 48 hrs by sulforhodamine B assay relative to control; format: functional; conditions: TK-10, 48 h, read-out: GI
[16] = test system: RXF 393; assay: Growth inhibition of human RXF393 cells at 10 uM incubated for 48 hrs by sulforhodamine B assay relative to control; format: functional; conditions: RXF 393, 48 h, read-out: GI
[17] = test system: UACC-257; assay: Growth inhibition of human UACC257 cells at 10 uM incubated for 48 hrs by sulforhodamine B assay relative to control; format: functional; conditions: UACC-257, 48 h, read-out: GI
[18] = test system: A549; assay: Growth inhibition of human A549/ATCC cells at 10 uM incubated for 48 hrs by sulforhodamine B assay relative to control; format: functional; conditions: A549, 48 h, read-out: GI
[19] = test system: NCI/ADR-RES; assay: Growth inhibition of human NCI/ADR-RES cells at 10 uM incubated for 48 hrs by sulforhodamine B assay relative to control; format: functional; conditions: read-out: GI
[20] = test system: SN12C; assay: Growth inhibition of human SN12C cells at 10 uM incubated for 48 hrs by sulforhodamine B assay relative to control; format: functional; conditions: read-out: GI
[21] = test system: EKVX; assay: Growth inhibition of human EKVX cells at 10 uM incubated for 48 hrs by sulforhodamine B assay relative to control; format: functional; conditions: read-out: GI
[22] = test system: UO-31; assay: Growth inhibition of human UO31 cells at 10 uM incubated for 48 hrs by sulforhodamine B assay relative to control; format: functional; conditions: UO-31, 48 h, read-out: GI
[23] = test system: HT-29; assay: Growth inhibition of human HT-29 cells at 10 uM incubated for 48 hrs by sulforhodamine B assay relative to control; format: functional; conditions: HT-29, 48 h, read-out: GI
[24] = test system: U-251; assay: Growth inhibition of human U251 cells at 10 uM incubated for 48 hrs by sulforhodamine B assay relative to control; format: functional; conditions: U-251, 48 h, read-out: GI
[25] = test system: MDA-MB-468; assay: Growth inhibition of human MDA-MB-468 cells at 10 uM incubated for 48 hrs by sulforhodamine B assay relative to control; format: functional; conditions: MDA-MB-468, 48 h, read-out: GI
[26] = test system: KM12; assay: Growth inhibition of human KM12 cells at 10 uM incubated for 48 hrs by sulforhodamine B assay relative to control; format: functional; conditions: KM12, 48 h, read-out: GI
[27] = test system: NCI-H522; assay: Growth inhibition of human NCI-H522 cells at 10 uM incubated for 48 hrs by sulforhodamine B assay relative to control; format: functional; conditions: NCI-H522, 48 h, read-out: GI
[28] = test system: SW-620; assay: Growth inhibition of human SW620 cells at 10 uM incubated for 48 hrs by sulforhodamine B assay relative to control; format: functional; conditions: SW-620, 48 h, read-out: GI
[29] = test system: ACHN; assay: Growth inhibition of human ACHN cells at 10 uM incubated for 48 hrs by sulforhodamine B assay relative to control; format: functional; conditions: read-out: GI
[30] = test system: DU-145; assay: Growth inhibition of human DU145 cells at 10 uM incubated for 48 hrs by sulforhodamine B assay relative to control; format: functional; conditions: DU-145, 48 h, read-out: GI
[31] = test system: MCF7; assay: Growth inhibition of human MCF7 cells at 10 uM incubated for 48 hrs by sulforhodamine B assay relative to control; format: functional; conditions: MCF7, 48 h, read-out: GI
[32] = test system: HCT-116; assay: Growth inhibition of human HCT116 cells at 10 uM incubated for 48 hrs by sulforhodamine B assay relative to control; format: functional; conditions: HCT-116, 48 h, read-out: GI
[33] = test system: PC-3; assay: Growth inhibition of human PC3 cells at 10 uM incubated for 48 hrs by sulforhodamine B assay relative to control; format: functional; conditions: PC-3, 48 h, read-out: GI
[34] = test system: NCI-H226; assay: Growth inhibition of human NCI-H226 cells at 10 uM incubated for 48 hrs by sulforhodamine B assay relative to control; format: functional; conditions: NCI-H226, 48 h, read-out: GI
[35] = test system: HCT-15; assay: Growth inhibition of human HCT15 cells at 10 uM incubated for 48 hrs by sulforhodamine B assay relative to control; format: functional; conditions: HCT-15, 48 h, read-out: GI
[36] = test system: T47D; assay: Growth inhibition of human T47D cells at 10 uM incubated for 48 hrs by sulforhodamine B assay relative to control; format: functional; conditions: read-out: GI
[37] = test system: SNB-19; assay: Growth inhibition of human SNB19 cells at 10 uM incubated for 48 hrs by sulforhodamine B assay relative to control; format: functional; conditions: SNB-19, 48 h, read-out: GI
[38] = test system: CAKI-1; assay: Growth inhibition of human Caki1 cells at 10 uM incubated for 48 hrs by sulforhodamine B assay relative to control; format: functional; conditions: CAKI-1, 48 h, read-out: GI
[39] = molecular target: T1, Carbonic anhydrase 9; assay: Inhibition of human recombinant carbonic anhydrase 9 by stopped flow CO2 hydration assay

SMILES: NS(=O)(=O)c1ccc(N/N=C2\C(=O)N(Cc3ccccc3)c3ccccc32)cc1
- inhibition of growth at 10 µM [1]: 34%
- inhibition of growth at 10 µM [2]: 13%
- inhibition of growth at 10 µM [3]: 21%
- inhibition of growth at 10 µM [4]: 20%
- inhibition of growth at 10 µM [5]: 37%
- inhibition of growth at 10 µM [6]: 22%
- inhibition of growth at 10 µM [7]: 36%
- inhibition of growth at 10 µM [8]: 16%
- Ki [9]: 0.0277 µM
- inhibition of growth at 10 µM [10]: 38%
- inhibition of growth at 10 µM [11]: 19%
- inhibition of growth at 10 µM [12]: 17%
- inhibition of growth at 10 µM [13]: 12%
- inhibition of growth at 10 µM [14]: 10%
- inhibition of growth at 10 µM [15]: 19%
- inhibition of growth at 10 µM [16]: 10%
- inhibition of growth at 10 µM [17]: 11%
- inhibition of growth at 10 µM [18]: 25%
- inhibition of growth at 10 µM [19]: 20%
- inhibition of growth at 10 µM [20]: 19%
- inhibition of growth at 10 µM [21]: 13%
- inhibition of growth at 10 µM [22]: 38%
- inhibition of growth at 10 µM [23]: 21%
- inhibition of growth at 10 µM [24]: 17%
- inhibition of growth at 10 µM [25]: 27%
- inhibition of growth at 10 µM [26]: 10%
- inhibition of growth at 10 µM [27]: 46%
- inhibition of growth at 10 µM [28]: 18%
- inhibition of growth at 10 µM [29]: 14%
- inhibition of growth at 10 µM [30]: 10%
- inhibition of growth at 10 µM [31]: 21%
- inhibition of growth at 10 µM [32]: 28%
- inhibition of growth at 10 µM [33]: 25%
- inhibition of growth at 10 µM [34]: 21%
- inhibition of growth at 10 µM [35]: 13%
- inhibition of growth at 10 µM [36]: 42%
- inhibition of growth at 10 µM [37]: 13%
- inhibition of growth at 10 µM [38]: 20%

SMILES: NS(=O)(=O)c1ccc(CC/N=C2\NC(=O)/C(=C3/C(=O)Nc4ccc(F)cc43)S2)cc1
- Ki [39]: 0.287 µM
